Laboratory results as given in patent US20040029276A1, “Fish attractants” (priority 2000, published 2004).

Key:
carp = experiment: Behavioural response of carp in a Perspex flow-through experimental flume; assay type: in vivo
Description: The behaviour of carp in response to 17,20β-dihydroxy-4-pregnen-3-one was studied in a Perspex flow-through experimental flume. Fish were placed in the flume individually and allowed to acclimatise for a minimum of 1 hour before each experiment. The first set of experiments determined the behavioural response of male (n=5) and female (n=5) carp to serial dilutions of pure and synthetic form of 17,20β-dihydroxy-4-pregnen-3-one. Dilutions ranged from one part in 10^5 to one part in 10^11. The second set of experiments tested the behavioural response of male and female carp (n=6) to the same serial dilutions of synthetic 17,20β-dihydroxy-4-pregnen-3-one as used in Experiment 1, but with the addition of 5 dyed-gelatine pellets on the bottom of the flume. […] This feeding behaviour was characterised by the following: […]

male and female carp = experiment: Electrophysiological and behavioural studies in an experimental behaviour chamber; assay type: in vivo
Text: A particular composition which includes either a pure or crude synthetic form of 17,20β-dihydroxy-4-pregnen-3-one with an ethanol carrier has been tested by the inventors in laboratory experiments.

[1] = system: olfactory system of the male fish; details: olfactory detection of the sex pheromone, Sorenson et al. 1987; cited from earlier work

C[C@@H](O)[C@@]1(O)CC[C@H]2[C@@H]3CCC4=CC(=O)CC[C@]4(C)[C@H]3CC[C@@]21C [17,20β-dihydroxy-4-pregnen-3-one]
feeding behaviour in carp (carp; added to the behaviour chamber at concentrations ranging from 10^−5 to one part in 10^−10): resulted in feeding behaviour in carp | attraction of fish (carp; sexually immature carp): attracted immature carp | feeding behaviour in immature carp (carp; sexually immature carp): resulted in feeding behaviour in these individuals | feeding behaviour on detection of the hormone (male and female carp; experimental behaviour chamber): results in feeding behaviour | detection of the hormone by the fish (male and female carp; pure or crude synthetic form with an ethanol carrier): detected by both male and female carp | threshold concentration for the male fish [1]: about 10^−13 M
